Reference: PMC8539695, “Promising Natural Compounds against Flavivirus Proteases: Citrus Flavonoids Hesperetin and Hesperidin” (Plants, 2021)

What was measured:
DENV2 NS2B/NS3^pro [1] = target: T1, DENV2 NS2B/NS3^pro (Dengue virus type 2, UniProt P14340); experiment: biochemical; type: biochemical
T1 construct: tryptophan residues in the NS2B cofactor domain and in the NS3 protease domain; inferred from Ni-NTA purification and the pET-15b vector; made in house; host or cells: E. coli Lemo (DE3)
T1 sequence (P14340 with tags, fused parts or gaps I1442G/L1443G/I1444G/R1445G/T1446S/DEL1448-1472/K1473G/Q1474G/R1475G): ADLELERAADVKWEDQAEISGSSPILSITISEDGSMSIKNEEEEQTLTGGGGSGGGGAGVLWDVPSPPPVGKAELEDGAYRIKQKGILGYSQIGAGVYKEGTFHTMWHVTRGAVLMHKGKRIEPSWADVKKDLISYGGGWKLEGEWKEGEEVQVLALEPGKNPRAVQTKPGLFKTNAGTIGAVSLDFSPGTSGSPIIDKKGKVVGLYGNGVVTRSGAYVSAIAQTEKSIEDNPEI

YFV NS2B/NS3^pro [2] = target: T2, YFV NS2B/NS3^pro (Yellow fever virus, UniProt Q1X881); experiment: biochemical; details: for inhibition at 10 µM: read-out: Inhibition of protease activity, primary inhibition test
T2 sequence (Q1X881 1485-1665 limits assumed): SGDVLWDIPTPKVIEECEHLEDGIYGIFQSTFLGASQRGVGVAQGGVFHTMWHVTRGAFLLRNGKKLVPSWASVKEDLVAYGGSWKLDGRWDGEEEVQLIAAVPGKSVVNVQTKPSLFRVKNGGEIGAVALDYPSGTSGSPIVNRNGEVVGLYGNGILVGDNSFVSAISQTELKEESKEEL
T2 sequence (Q1X881 1407-1446 partner limits assumed): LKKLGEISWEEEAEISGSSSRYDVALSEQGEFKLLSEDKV

WNV NS2B/NS3^pro [3] = target: T3, WNV NS2B/NS3^pro (West Nile virus, UniProt P06935); experiment: biochemical; details: for inhibition at 10 µM: read-out: Inhibition of protease activity, primary inhibition test
T3 construct: tryptophan residues in the NS2B cofactor domain and in the NS3 protease domain; inferred from Ni-NTA purification and the pET-15b vector; made in house; host or cells: E. coli Lemo (DE3)
T3 sequence (P06935 1502-1679 limits assumed): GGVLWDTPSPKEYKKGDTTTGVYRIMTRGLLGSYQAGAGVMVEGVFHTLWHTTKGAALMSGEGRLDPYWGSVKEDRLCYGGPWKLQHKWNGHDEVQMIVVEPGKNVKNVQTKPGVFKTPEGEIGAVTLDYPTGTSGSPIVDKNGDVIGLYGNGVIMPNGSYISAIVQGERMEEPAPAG
T3 sequence (P06935 1424-1463 partner limits assumed): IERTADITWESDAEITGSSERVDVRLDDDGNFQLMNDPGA

DENV2 NS2B/NS3^pro [4] = target: T1, DENV2 NS2B/NS3^pro; experiment: biochemical; type: binding
YFV NS2B/NS3^pro [5] = target: T2, YFV NS2B/NS3^pro; experiment: biochemical; type: binding
WNV NS2B/NS3^pro [6] = target: T3, WNV NS2B/NS3^pro; experiment: biochemical; type: binding
ZIKV NS2B/NS3^pro [7] = tested on: ZIKV NS2B/NS3^pro; parameters: method as in PMID 33661906; details: ZIKV NS2B/NS3pro, cited from earlier work
ZIKV NS2B/NS3^pro [8] = target: ZIKV NS2B/NS3^pro; parameters: method as in PMID 33661906; details: ZIKV NS2B/NS3pro, value ± STD; cited from earlier work

Compound	Concentration that inhibited 100% of the protease activity (DENV2 NS2B/NS3^pro [1]) [µM]	IC50 (DENV2 NS2B/NS3^pro [1]) [µM]	Inhibition Mode (DENV2 NS2B/NS3^pro [1])	LE (ligand efficiency) (DENV2 NS2B/NS3^pro [1])	Concentration that inhibited 100% of the protease activity (YFV NS2B/NS3^pro [2]) [µM]	IC50 (YFV NS2B/NS3^pro [2]) [µM]	Inhibition Mode (YFV NS2B/NS3^pro [2])	LE (ligand efficiency) (YFV NS2B/NS3^pro [2])	inhibition at 10 µM (YFV NS2B/NS3^pro [2]) [%]	Concentration that inhibited 100% of the protease activity (WNV NS2B/NS3^pro [3]) [µM]	IC50 (WNV NS2B/NS3^pro [3]) [µM]	Inhibition Mode (WNV NS2B/NS3^pro [3])	LE (ligand efficiency) (WNV NS2B/NS3^pro [3])	inhibition at 10 µM (WNV NS2B/NS3^pro [3]) [%]	Kd (DENV2 NS2B/NS3^pro [4]) [µM]	Red edge excitation shift (REES) of the protease maximum fluorescence peak (DENV2 NS2B/NS3^pro [4])	Kd (YFV NS2B/NS3^pro [5]) [µM]	Red edge excitation shift (REES) of the protease maximum fluorescence peak (YFV NS2B/NS3^pro [5])	Kd (WNV NS2B/NS3^pro [6]) [µM]	Red edge excitation shift (REES) of the protease maximum fluorescence peak (WNV NS2B/NS3^pro [6])	other results
COc1ccc(C2CC(=O)c3c(O)cc(O)cc3O2)cc1O (centres unmarked) [HST, 3′,5,7-trihydroxy-4′-methoxyflavanone]	140	4.7 ± 0.8	noncompetitive	0.34	80	2.04	noncompetitive	0.36	~80	80	4.27	noncompetitive	0.34	~70	18.7 ± 2.7	11 nm	12.3 ± 2.2	22 nm	13.5 ± 2	15 nm	IC50 (ZIKV NS2B/NS3^pro [7]; value ± STD): 12.6 ± 1.3 µM; Inhibition Mode (ZIKV NS2B/NS3^pro [7]): noncompetitive; pIC50 (ZIKV NS2B/NS3^pro [7]): 4.90; Kd (ZIKV NS2B/NS3^pro [8]): 17.8 ± 2.9 µM
COc1ccc(C2CC(=O)c3c(O)cc(OC4O[C@H](CO[C@@H]5O[C@@H](C)[C@H](O)[C@@H](O)[C@H]5O)[C@@H](O)[C@H](O)[C@H]4O)cc3O2)cc1O (some centres unmarked) [HSD, 3′,5,7-trihydroxy-4′-methoxy-flavanone-7-rhamnoglucoside]	140	55.7 ± 2.5	noncompetitive	0.14	140	67.7 ± 7.5	noncompetitive	0.13	~30	120	50.7 ± 8.3	noncompetitive	0.14	~30	20.9 ± 2.4	no shift	29.5 ± 2.8	no shift	19.5 ± 2.8	no shift	
